Reference: ChEMBL document CHEMBL1201862, “PubChem BioAssay data set” (2004)
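Growth conditions: 96-well plates. Treatment: test compound, 48 hours, 5 concentrations. Analysis: linear interpolation between bracketing concentrations; unreached endpoints set to highest concentration. The concentration for 50% growth inhibition is given as GI50.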 The source made the active and inactive calls. Rule as the data show it: active = GI50 up to about 1.1 µM and inactive = higher.

Experiments:
Test in all cases: NCI tumour cell line growth inhibition, 48 h
RXF 631 = system: RXF 631
SNB-19 = system: SNB-19
OVCAR-8 = system: OVCAR-8
UO-31 = system: UO-31
IGROV-1 = system: IGROV-1
MDA-MB-435 = system: MDA-MB-435
HL-60 = system: HL-60
HCT-15 = system: HCT-15
OVCAR-5 = system: OVCAR-5
MOLT-4 = system: MOLT-4
XF498 = system: XF498
NCI-H522 = system: NCI-H522
SR = system: SR
CAKI-1 = system: CAKI-1
HOP-62 = system: HOP-62
Malme-3M = system: Malme-3M
NCI/ADR-RES = system: NCI/ADR-RES
TK-10 = system: TK-10
EKVX = system: EKVX
T47D = system: T47D
SF-268 = system: SF-268
SN12C = system: SN12C
RXF 393 = system: RXF 393
BT-549 = system: BT-549
DU-145 = system: DU-145
DLD-1 = system: DLD-1
HCC 2998 = system: HCC 2998
SK-OV-3 = system: SK-OV-3
MDA-N = system: MDA-N
K562 = system: K562
HCT-116 = system: HCT-116
MCF7 = system: MCF7
786-0 = system: 786-0
LOX IMVI = system: LOX IMVI
A498 = system: A498
U-251 = system: U-251
NCI-H460 = system: NCI-H460
OVCAR-4 = system: OVCAR-4
LXFL 529 = system: LXFL 529
RPMI-8226 = system: RPMI-8226
KM12 = system: KM12
NCI-H23 = system: NCI-H23
UACC-62 = system: UACC-62
A549 = system: A549
M19-MEL = system: M19-MEL
HOP-18 = system: HOP-18
SK-MEL-28 = system: SK-MEL-28
UACC-257 = system: UACC-257
M14 = system: M14
ACHN = system: ACHN
SNB-75 = system: SNB-75
HT-29 = system: HT-29
SK-MEL-5 = system: SK-MEL-5
CCRF-CEM = system: CCRF-CEM
HOP-92 = system: HOP-92
NCI-H226 = system: NCI-H226
Hs-578T = system: Hs-578T
KM-20L2 = system: KM-20L2
MDA-MB-231 = system: MDA-MB-231
SW-620 = system: SW-620
SF-295 = system: SF-295
SNB-78 = system: SNB-78
PC-3 = system: PC-3
OVCAR-3 = system: OVCAR-3
COLO 205 = system: COLO 205
SK-MEL-2 = system: SK-MEL-2
SF-539 = system: SF-539
DMS-273 = system: DMS-273
DMS-114 = system: DMS-114

COC1/C=C\C=C(/C)C(=O)NC2=CC(=O)C(N)=C(CC(C)CC(OC)C(O)C(C)C=C(C)C1OC(N)=O)C2=O (stereo unspecified)
GI50 (RXF 631): 303 nM (active)
GI50 (SNB-19): 42.4 nM (active)
GI50 (OVCAR-8): < 20.3 nM (active)
GI50 (UO-31): 184 nM (active)
GI50 (IGROV-1): 31.8 nM (active)
GI50 (MDA-MB-435): < 19.1 nM (active)
GI50 (HL-60): 58.5 nM (active)
GI50 (HCT-15): 333 nM
GI50 (OVCAR-5): 375 nM (active)
GI50 (MOLT-4): 150 nM (active)
GI50 (XF498): 56.5 nM (active)
GI50 (NCI-H522): 23.4 nM (active)
GI50 (SR): 16.1 nM (active)
GI50 (CAKI-1): 977 nM (active)
GI50 (HOP-62): < 19.9 nM (active)
GI50 (Malme-3M): 23.1 nM (active)
GI50 (NCI/ADR-RES): 28700 nM (inactive)
GI50 (TK-10): 321 nM (active)
GI50 (EKVX): 3970 nM (inactive)
GI50 (T47D): 653 nM (active)
GI50 (SF-268): 419 nM (active)
GI50 (SN12C): 17 nM (active)
GI50 (RXF 393): 2930 nM (inactive)
GI50 (BT-549): 11800 nM (inactive)
GI50 (DU-145): < 19.9 nM (active)
GI50 (DLD-1): 68.9 nM (active)
GI50 (HCC 2998): 26.8 nM (active)
GI50 (SK-OV-3): < 12.3 nM (active)
GI50 (MDA-N): < 17.1 nM (active)
GI50 (K562): 20.4 nM (active)
GI50 (HCT-116): 23.3 nM (active)
GI50 (MCF7): 41.6 nM (active)
GI50 (786-0): 368 nM (active)
GI50 (LOX IMVI): 19.3 nM (active)
GI50 (A498): 19100 nM (inactive)
GI50 (U-251): < 10 nM (active)
GI50 (NCI-H460): < 10 nM (active)
GI50 (OVCAR-4): 4070 nM (inactive)
GI50 (LXFL 529): 46.2 nM (active)
GI50 (RPMI-8226): 195 nM (active)
GI50 (KM12): 24.4 nM (active)
GI50 (NCI-H23): < 21.2 nM (active)
GI50 (UACC-62): 24.7 nM (active)
GI50 (A549): 21.6 nM (active)
GI50 (M19-MEL): < 10 nM (active)
GI50 (HOP-18): < 10 nM (active)
GI50 (SK-MEL-28): < 26.6 nM (active)
GI50 (UACC-257): 30 nM (active)
GI50 (M14): 20.4 nM (active)
GI50 (ACHN): 93.5 nM (active)
GI50 (SNB-75): < 13.7 nM (active)
GI50 (HT-29): < 10 nM (active)
GI50 (SK-MEL-5): 42 nM (active)
GI50 (CCRF-CEM): 178 nM (active)
GI50 (HOP-92): 15.6 nM (active)
GI50 (NCI-H226): 5870 nM (inactive)
GI50 (Hs-578T): < 10 nM (active)
GI50 (KM-20L2): < 10 nM (active)
GI50 (MDA-MB-231): < 18.7 nM (active)
GI50 (SW-620): < 13.3 nM (active)
GI50 (SF-295): 29.5 nM (active)
GI50 (SNB-78): 3550 nM (inactive)
GI50 (PC-3): 293 nM (active)
GI50 (OVCAR-3): 68.1 nM (active)
GI50 (COLO 205): < 10 nM (active)
GI50 (SK-MEL-2): < 10 nM (active)

COc1ccc2c3c(c(C(=O)c4ccccc4)oc13)CCC2
GI50 (RXF 631): > 100000 nM (inactive)
GI50 (SNB-19): > 100000 nM (inactive)
GI50 (OVCAR-8): > 100000 nM (inactive)
GI50 (IGROV-1): > 100000 nM (inactive)
GI50 (HL-60): > 100000 nM (inactive)
GI50 (HCT-15): > 100000 nM
GI50 (MOLT-4): > 100000 nM (inactive)
GI50 (XF498): > 100000 nM (inactive)
GI50 (CAKI-1): > 100000 nM (inactive)
GI50 (HOP-62): > 100000 nM (inactive)
GI50 (TK-10): > 100000 nM (inactive)
GI50 (EKVX): > 100000 nM (inactive)
GI50 (SN12C): > 100000 nM (inactive)
GI50 (RXF 393): 17500 nM (inactive)
GI50 (DLD-1): > 100000 nM (inactive)
GI50 (HCC 2998): > 100000 nM (inactive)
GI50 (SF-539): > 100000 nM (inactive)
GI50 (SK-OV-3): > 100000 nM (inactive)
GI50 (K562): > 100000 nM (inactive)
GI50 (HCT-116): > 100000 nM (inactive)
GI50 (786-0): > 100000 nM (inactive)
GI50 (LOX IMVI): > 100000 nM (inactive)
GI50 (A498): > 100000 nM (inactive)
GI50 (U-251): > 100000 nM (inactive)
GI50 (NCI-H460): > 100000 nM (inactive)
GI50 (OVCAR-4): > 100000 nM (inactive)
GI50 (LXFL 529): > 100000 nM (inactive)
GI50 (RPMI-8226): > 100000 nM (inactive)
GI50 (NCI-H23): 20800 nM (inactive)
GI50 (UACC-62): > 100000 nM (inactive)
GI50 (A549): > 100000 nM (inactive)
GI50 (M19-MEL): > 100000 nM (inactive)
GI50 (HOP-18): > 100000 nM (inactive)
GI50 (SK-MEL-28): > 100000 nM (inactive)
GI50 (UACC-257): > 100000 nM (inactive)
GI50 (M14): > 100000 nM (inactive)
GI50 (ACHN): > 100000 nM (inactive)
GI50 (SNB-75): 81500 nM (inactive)
GI50 (HT-29): 79400 nM (inactive)
GI50 (SK-MEL-5): > 100000 nM (inactive)
GI50 (CCRF-CEM): > 100000 nM (inactive)
GI50 (HOP-92): < 10 nM (active)
GI50 (KM-20L2): > 100000 nM (inactive)
GI50 (SW-620): > 100000 nM (inactive)
GI50 (SF-295): > 100000 nM (inactive)
GI50 (SNB-78): > 100000 nM (inactive)
GI50 (DMS-273): > 100000 nM (inactive)
GI50 (OVCAR-3): > 100000 nM (inactive)
GI50 (DMS-114): > 100000 nM (inactive)
GI50 (COLO 205): > 100000 nM (inactive)
